Measurements as given in ChEMBL document CHEMBL3885861, “Open TG-GATES”.

Species: Rattus norvegicus
Experiment: Open TG-GATES - Regimen: Single
Format: toxicity, organism-based, Sprague-Dawley
Parameters: regimen Single, gender Male, age 6 weeks
Conditions: in vivo, po, 30 mg/kg, route gavage, dose level Low; for APTT / Bas / Eos / Fbg / Hb / Ht / Lym / MCH / MCHC / MCV / Mono / Neu / PT / Plat / RBC / Ret / WBC: tissue Blood; for KIDNEY_L / KIDNEY_R / KIDNEY_TOTAL: tissue Kidney; for LIVER: tissue Liver; for A/G / ALP / ALT / AST / BUN / CRE / Ca / Cl / DBIL / GLC / IP / K / LDH / Na / PL / RALB / TBIL / TC / TG / TP / gamma-GTP: tissue Plasma

CC[C@H]1[C@@H]2C[C@H]3[C@@H]4N(C)c5ccccc5[C@]45C[C@@H]([C@@H]2[C@H]5O)N3[C@@H]1O [AJMALINE]
TERMINAL_BW (3 h): 194.7 g | APTT (3 h): 16.9 s | Bas (3 h): 0% | Eos (3 h): 1% | Fbg (3 h): 196.4 mg/dL | Hb (3 h): 12.8 g/dL | Ht (3 h): 39.1% | Lym (3 h): 78.6% | MCH (3 h): 21.7 pg | MCHC (3 h): 32.8% | MCV (3 h): 66.3 fL | Mono (3 h): 8.8% | Neu (3 h): 12% | PT (3 h): 11.6 s | Plat (3 h): 121.5 x10_4/uL | RBC (3 h): 590.6 x10_4/ul | Ret (3 h): 12.4% | WBC (3 h): 114.3 x10_2/uL | KIDNEY_L (3 h): 0.9 g | KIDNEY_R (3 h): 0.9 g | KIDNEY_TOTAL (3 h): 1.8 g | LIVER (3 h): 9.1 g | A/G (3 h): 2.3 | ALP (3 h): 821 IU/L | ALT (3 h): 34.8 IU/L | AST (3 h): 69.8 IU/L | BUN (3 h): 12.2 mg/dL | CRE (3 h): 0.4 mg/dL | Ca (3 h): 11.3 mg/dL | Cl (3 h): 102.4 meq/L | DBIL (3 h): 0.052 mg/dL | GLC (3 h): 193.6 mg/dL | IP (3 h): 9 mg/dL | K (3 h): 4.5 meq/L | LDH (3 h): 108 IU/L | Na (3 h): 137.8 meq/L | PL (3 h): 141.6 mg/dL | RALB (3 h): 3.7 g/dL | TBIL (3 h): 0.4 mg/dL | TC (3 h): 77.4 mg/dL | TG (3 h): 55.8 mg/dL | TP (3 h): 5.3 g/dL | gamma-GTP (3 h): 1.6 IU/L | TERMINAL_BW (6 h): 190.9 g | APTT (6 h): 17.2 s | Bas (6 h): 0% | Eos (6 h): 1.2% | Fbg (6 h): 205 mg/dL | Hb (6 h): 12.8 g/dL | Ht (6 h): 38.9% | Lym (6 h): 74% | MCH (6 h): 22.2 pg | MCHC (6 h): 33% | MCV (6 h): 67.2 fL | Mono (6 h): 7% | Neu (6 h): 18.2% | PT (6 h): 11.8 s | Plat (6 h): 114.2 x10_4/uL | RBC (6 h): 578.4 x10_4/ul | Ret (6 h): 11.9% | WBC (6 h): 89.1 x10_2/uL | KIDNEY_L (6 h): 0.9 g | KIDNEY_R (6 h): 0.9 g | KIDNEY_TOTAL (6 h): 1.8 g | LIVER (6 h): 8.4 g | A/G (6 h): 2 | ALP (6 h): 865.4 IU/L | ALT (6 h): 40.6 IU/L | AST (6 h): 70 IU/L | BUN (6 h): 9 mg/dL | CRE (6 h): 0.5 mg/dL | Ca (6 h): 10.8 mg/dL | Cl (6 h): 102.6 meq/L | DBIL (6 h): 0.068 mg/dL | GLC (6 h): 195.8 mg/dL | IP (6 h): 9.7 mg/dL | K (6 h): 4.6 meq/L | LDH (6 h): 104.8 IU/L | Na (6 h): 138.8 meq/L | PL (6 h): 141.4 mg/dL | RALB (6 h): 3.5 g/dL | TBIL (6 h): 0.4 mg/dL | TC (6 h): 82.8 mg/dL | TG (6 h): 46.8 mg/dL | TP (6 h): 5.3 g/dL | gamma-GTP (6 h): 1.6 IU/L | TERMINAL_BW (9 h): 190.6 g | APTT (9 h): 17.1 s | Bas (9 h): 0% | Eos (9 h): 1% | Fbg (9 h): 201.2 mg/dL | Hb (9 h): 12.6 g/dL | Ht (9 h): 38.1% | Lym (9 h): 70.4% | MCH (9 h): 21.6 pg | MCHC (9 h): 33% | MCV (9 h): 65.6 fL | Mono (9 h): 8% | Neu (9 h): 21% | PT (9 h): 12.1 s | Plat (9 h): 119.4 x10_4/uL | RBC (9 h): 580.8 x10_4/ul | Ret (9 h): 10.6% | WBC (9 h): 83.7 x10_2/uL | KIDNEY_L (9 h): 0.9 g | KIDNEY_R (9 h): 0.9 g | KIDNEY_TOTAL (9 h): 1.8 g | LIVER (9 h): 8.1 g | A/G (9 h): 2.2 | ALP (9 h): 827.2 IU/L | ALT (9 h): 34.6 IU/L | AST (9 h): 64.6 IU/L | BUN (9 h): 12.2 mg/dL | CRE (9 h): 0.6 mg/dL | Ca (9 h): 10.4 mg/dL | Cl (9 h): 104.8 meq/L | DBIL (9 h): 0.1 mg/dL | GLC (9 h): 199.2 mg/dL | IP (9 h): 10.3 mg/dL | K (9 h): 5 meq/L | LDH (9 h): 108.2 IU/L | Na (9 h): 139 meq/L | PL (9 h): 132 mg/dL | RALB (9 h): 3.6 g/dL | TBIL (9 h): 0.4 mg/dL | TC (9 h): 82.2 mg/dL | TG (9 h): 48.4 mg/dL | TP (9 h): 5.2 g/dL | gamma-GTP (9 h): 0.8 IU/L | TERMINAL_BW (24 h): 210.7 g | APTT (24 h): 16.3 s | Bas (24 h): 0% | Eos (24 h): 1% | Fbg (24 h): 225 mg/dL | Hb (24 h): 12.8 g/dL | Ht (24 h): 38.6% | Lym (24 h): 75.8% | MCH (24 h): 21.7 pg | MCHC (24 h): 33.2% | MCV (24 h): 65.3 fL | Mono (24 h): 7.6% | Neu (24 h): 15.2% | PT (24 h): 11.5 s | Plat (24 h): 112.6 x10_4/uL | RBC (24 h): 590.8 x10_4/ul | Ret (24 h): 10.5% | WBC (24 h): 105.8 x10_2/uL | KIDNEY_L (24 h): 1 g | KIDNEY_R (24 h): 1 g | KIDNEY_TOTAL (24 h): 2 g | LIVER (24 h): 10.6 g | A/G (24 h): 2.1 | ALP (24 h): 875.4 IU/L | ALT (24 h): 36.8 IU/L | AST (24 h): 66.2 IU/L | BUN (24 h): 15.8 mg/dL | CRE (24 h): 0.6 mg/dL | Ca (24 h): 11.2 mg/dL | Cl (24 h): 100.8 meq/L | DBIL (24 h): 0.016 mg/dL | GLC (24 h): 207.6 mg/dL | IP (24 h): 8.4 mg/dL | K (24 h): 4.5 meq/L | LDH (24 h): 120.6 IU/L | Na (24 h): 140 meq/L | PL (24 h): 156.4 mg/dL | RALB (24 h): 3.8 g/dL | TBIL (24 h): 0.3 mg/dL | TC (24 h): 86.4 mg/dL | TG (24 h): 114.4 mg/dL | TP (24 h): 5.6 g/dL | gamma-GTP (24 h): 1.4 IU/L
